Legend:
Experiment in all cases: relative viability (nuclei count vs DMSO), 5 days (fraction); higher = more cells survive
[1] = tested on: BEN
Procedure, shortened: (§1)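 Lung cancer cell lines in 1536-well plates were dosed by pin tool the day after seeding, either with one drug alone or with a fixed anchor-drug dose plus five library-drug doses (not always all listed) in √10 steps. After 5 days, cells were fixed and their nuclei stained in one step (final 0.05% Triton X-100, 1% formaldehyde, 1 ug/ml Hoechst), then counted on 4× images. Relative viability is the nuclei count in treated wells divided by that in vehicle wells. Values are medians of duplicate plates.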

[2] = tested on: NCI-H1915
Procedure, shortened: as §1

[3] = tested on: CAL-12T
Procedure, shortened: as §1

[4] = tested on: NCI-H2126
Procedure, shortened: as §1

[5] = tested on: NCI-H1793
Procedure, shortened: as §1

[6] = tested on: NCI-H1944
Procedure, shortened: as §1

[7] = tested on: LOU-NH91
Procedure, shortened: as §1

[8] = tested on: NCI-H838
Procedure, shortened: as §1

[9] = tested on: SW 1573
Procedure, shortened: as §1

[10] = tested on: HCC-78
Procedure, shortened: as §1

[11] = tested on: NCI-H1651
Procedure, shortened: as §1

[12] = tested on: HOP-62
Procedure, shortened: as §1

[13] = tested on: NCI-H1395
Procedure, shortened: as §1

[14] = tested on: NCI-H3122
Procedure, shortened: as §1

[15] = tested on: 201T
Procedure, shortened: as §1

[16] = tested on: NCI-H1355
Procedure, shortened: as §1

[17] = tested on: NCI-H650
Procedure, shortened: as §1

[18] = tested on: NCI-H2347
Procedure, shortened: as §1

[19] = tested on: SK-LU-1
Procedure, shortened: as §1

[20] = tested on: LCLC-97TM1
Procedure, shortened: as §1

[21] = tested on: NCI-H322M
Procedure, shortened: as §1

[22] = tested on: NCI-H441
Procedure, shortened: as §1

In the case of `CN1CCN(CCOc2cc(OC3CCOCC3)c3c(Nc4c(Cl)ccc5c4OCO5)ncnc3c2)CC1` [Saracatinib] + CC(=O)c1c(C)c2cnc(Nc3ccc(N4CCNCC4)cn3)nc2n(C2CCCC2)c1=O [Palbociclib] (partner 0.5 µM), the relative viability ([1]; first compound 0.02 µM) is reported as 0.513, the relative viability ([1]; first compound 0.2 µM) is reported as 0.407 and the relative viability ([1]; first compound 0.6325 µM) is reported as 0.485. For the same compound, the relative viability ([1]; first compound 2 µM) was 0.435, the relative viability ([2]; first compound 0.02 µM) was 0.488 and the relative viability ([2]; first compound 0.2 µM) was 0.468. For the same compound, the relative viability ([2]; first compound 0.6325 µM) was 0.537, the relative viability ([2]; first compound 2 µM) was 0.462 and the relative viability ([3]; first compound 0.02 µM) was 0.542. It also gave a relative viability ([3]; first compound 0.2 µM) of 0.409, a relative viability ([3]; first compound 0.6325 µM) of 0.527 and a relative viability ([3]; first compound 2 µM) of 0.152. For the same compound, the relative viability ([4]; first compound 0.02 µM) was 0.358, the relative viability ([4]; first compound 0.2 µM) was 0.344 and the relative viability ([4]; first compound 0.6325 µM) was 0.363. For the same compound, the relative viability ([4]; first compound 2 µM) was 0.349, the relative viability ([5]; first compound 0.02 µM) was 0.363 and the relative viability ([5]; first compound 0.2 µM) was 0.311. The relative viability ([5]; first compound 0.6325 µM) was 0.299, the relative viability ([5]; first compound 2 µM) was 0.278 and the relative viability ([6]; first compound 0.02 µM) was 0.3. It also gave a relative viability ([6]; first compound 0.2 µM) of 0.281, a relative viability ([6]; first compound 0.6325 µM) of 0.305 and a relative viability ([6]; first compound 2 µM) of 0.255. It also gave a relative viability ([7]; first compound 0.02 µM) of 0.487, a relative viability ([7]; first compound 0.2 µM) of 0.551 and a relative viability ([7]; first compound 0.6325 µM) of 0.569. It also gave a relative viability ([7]; first compound 2 µM) of 0.49, a relative viability ([8]; first compound 0.02 µM) of 0.224 and a relative viability ([8]; first compound 0.2 µM) of 0.215. The relative viability ([8]; first compound 0.6325 µM) was 0.216, the relative viability ([8]; first compound 2 µM) was 0.182 and the relative viability ([9]; first compound 0.02 µM) was 0.416. For the same compound, the relative viability ([9]; first compound 0.2 µM) was 0.399, the relative viability ([9]; first compound 0.6325 µM) was 0.382 and the relative viability ([9]; first compound 2 µM) was 0.28. It also gave a relative viability ([10]; first compound 0.02 µM) of 0.461, a relative viability ([10]; first compound 0.2 µM) of 0.406 and a relative viability ([10]; first compound 0.6325 µM) of 0.45. It also gave a relative viability ([10]; first compound 2 µM) of 0.342, a relative viability ([11]; first compound 0.02 µM) of 0.587 and a relative viability ([11]; first compound 0.2 µM) of 0.478. The relative viability ([11]; first compound 0.6325 µM) was 0.642, the relative viability ([11]; first compound 2 µM) was 0.567 and the relative viability ([12]; first compound 0.02 µM) was 0.452. The relative viability ([12]; first compound 0.2 µM) was 0.396, the relative viability ([12]; first compound 0.6325 µM) was 0.459 and the relative viability ([12]; first compound 2 µM) was 0.477. The relative viability ([13]; first compound 0.02 µM) was 0.606, the relative viability ([13]; first compound 0.2 µM) was 0.562 and the relative viability ([13]; first compound 0.6325 µM) was 0.598. The relative viability ([13]; first compound 2 µM) was 0.516, the relative viability ([14]; first compound 0.02 µM) was 0.194 and the relative viability ([14]; first compound 0.2 µM) was 0.174. It also gave a relative viability ([14]; first compound 0.6325 µM) of 0.199, a relative viability ([14]; first compound 2 µM) of 0.185 and a relative viability ([15]; first compound 0.02 µM) of 0.358. It also gave a relative viability ([15]; first compound 0.2 µM) of 0.311, a relative viability ([15]; first compound 0.6325 µM) of 0.323 and a relative viability ([15]; first compound 2 µM) of 0.26. For the same compound, the relative viability ([16]; first compound 0.02 µM) was 0.401, the relative viability ([16]; first compound 0.2 µM) was 0.432 and the relative viability ([16]; first compound 0.6325 µM) was 0.416. The relative viability ([16]; first compound 2 µM) was 0.371, the relative viability ([17]; first compound 0.02 µM) was 0.336 and the relative viability ([17]; first compound 0.2 µM) was 0.314. It also gave a relative viability ([17]; first compound 0.6325 µM) of 0.33, a relative viability ([17]; first compound 2 µM) of 0.307 and a relative viability ([18]; first compound 0.02 µM) of 0.468. It also gave a relative viability ([18]; first compound 0.2 µM) of 0.397, a relative viability ([18]; first compound 0.6325 µM) of 0.428 and a relative viability ([18]; first compound 2 µM) of 0.432. For the same compound, the relative viability ([19]; first compound 0.02 µM) was 0.517, the relative viability ([19]; first compound 0.2 µM) was 0.297 and the relative viability ([19]; first compound 0.6325 µM) was 0.328. It also gave a relative viability ([19]; first compound 2 µM) of 0.254, a relative viability ([20]; first compound 0.02 µM) of 0.21 and a relative viability ([20]; first compound 0.2 µM) of 0.185. For the same compound, the relative viability ([20]; first compound 0.6325 µM) was 0.281, the relative viability ([20]; first compound 2 µM) was 0.175 and the relative viability ([21]; first compound 0.02 µM) was 0.534. It also gave a relative viability ([21]; first compound 0.2 µM) of 0.38, a relative viability ([21]; first compound 0.6325 µM) of 0.46 and a relative viability ([21]; first compound 2 µM) of 0.306. The relative viability ([22]; first compound 0.02 µM) was 0.243, the relative viability ([22]; first compound 0.2 µM) was 0.196 and the relative viability ([22]; first compound 0.6325 µM) was 0.199. The relative viability ([22]; first compound 2 µM) was 0.182.
